# Measurements as given in US7981912B2, “Indole acetic acids exhibiting CRTH2 receptor antagonism and uses thereof” (Wyeth LLC, priority 2004, dated 2011).
# Target: T1, human CRTH2 (Homo sapiens, UniProt Q9Y5Y4)
# T1 sequence (Q9Y5Y4 1-395): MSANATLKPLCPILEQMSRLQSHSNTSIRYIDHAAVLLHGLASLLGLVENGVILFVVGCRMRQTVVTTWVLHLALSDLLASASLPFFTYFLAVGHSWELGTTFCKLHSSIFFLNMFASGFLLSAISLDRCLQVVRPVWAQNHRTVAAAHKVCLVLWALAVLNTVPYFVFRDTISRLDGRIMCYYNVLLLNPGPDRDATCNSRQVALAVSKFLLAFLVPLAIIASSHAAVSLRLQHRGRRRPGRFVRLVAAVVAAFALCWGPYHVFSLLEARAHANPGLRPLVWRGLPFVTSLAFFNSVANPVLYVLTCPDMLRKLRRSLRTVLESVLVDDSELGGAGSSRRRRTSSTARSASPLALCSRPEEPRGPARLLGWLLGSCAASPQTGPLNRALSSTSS
# Test: CRTH-2 binding assay (scintillation proximity assay, inhibition of 3H-PGD2 binding)
# Design: expressed in transfected cells; host or cells: HEK 293EBNA-hCRTH2 (membrane preparation)
# Conditions: inhibition of 3H-PGD2 (3.6 nM) binding to HEK 293EBNA-hCRTH2 membranes; Ki calculated from IC50
# Experimental: A CRTH2 binding assay was developed to measure the ability of compounds to inhibit the binding of PGD2 to human CRTH2 using a scintillation proximity assay.
# Membranes containing hCRTH2 receptors were prepared from HEK 293EBNA-hCRTH2 cells (a HEK 293EBNA cell line stably expressing human CRTH2). The cells were grown to confluency, harvested and washed with PBS. The cells were resuspended in 10 mM Hepes pH 7.4, 1 mM EDTA and protease inhibitors and incubated for 30 min on ice. The cells were homogenized and centrifuged for 10 min at 1000×g. The supernate was centrifuged for 30 min at 100,000×g and the membrane pellet was then resusupended in 10 mM Hepes pH 7.4 and 1 mM EDTA. The protein concentration of the membrane preparation was determined by Bradford assay (Bio-Rad).
# The ability of compounds to inhibit the interaction of PGD2 to human CRTH2 was determined at seven compound concentrations. Compounds were serially diluted in DMSO then diluted into CRTH2 buffer without glycerol (10 mM Hepes pH 7.4, 1 mM EDTA, 10 mM MnCl2) to six times the final desired concentration. 20 μL of the diluted compounds were transferred into non-surface binding 96 well plates (Corning). Each concentration was done in triplicate. In addition to test compounds, each plate contained 12 control wells. Six of these wells contained 20 μL of CRTH2 buffer without glycerol. These wells were used to measure total binding. Six wells contained 20 μL of CRTH2 buffer without glycerol plus 1.5 mM indomethacin. These wells were used to measure non-specific binding. Next, HEK 293EBNA-hCRTH2 membranes were resuspended in CRTH2 buffer with glycerol (10 mM Hepes pH 7.4, 1 mM EDTA, 10 mM MnCl2, 25% glycerol) so that the final concentration was approximately 20 μg protein/100 μL. Polylysine coated yttrium silicate SPA beads (Amershamn) were added to the membrane mix to a concentration of 0.4 mg/100 μL and finally ^3H-PGD2 was added to the membrane/SPA bead mix to 3.6 nM. 100 μL of the membrane/SPA bead/^3H-PGD2 mix was added to each well of the non-surface binding plates containing the diluted compound plus controls. The plates were incubated for 2 hours at room temperature with shaking and then the plates were counted on a Microbeta scintillation counter (Perkin Elmer) for 1 min per well.
# IC50 values were determined from the experimental results by nonlinear regression using Prism 4.0 software. The IC50 values were then used in conjunction with the […] for hCRTH2 and the ^3H-PGD2 concentration used in the experiment to calculate the Ki for each compound.
row,SMILES,Ki
1,"Cc1ccc2c(c1)c(C1c3ccccc3S(=O)(=O)N1C(C)C#N)cn2CC(=O)O (stereo not shown) [Example 53, {3-[2-(Cyano-methyl-methyl)-1,1-dioxo-2,3-dihydro-1H-1λ^6-benzo[d]isothiazol-3-yl]-5-methyl-indol-1-yl}-acetic acid]",< 10000 nM
2,"COc1ccc2c(c1)c(C1c3ccccc3S(=O)(=O)N1Cc1ccc(F)cc1)cn2CC(=O)O (stereo not shown) [Example 54, {3-[2-(4-Fluoro-benzyl)-1,1-dioxo-2,3-dihydro-1H-1λ^6-benzo[d]isothiazol-3-yl]-5-methoxy-indol-1-yl}-acetic acid]",< 1000 nM
3,"COc1ccc2c(c1)c(C1c3ccccc3S(=O)(=O)N1CCc1ccccc1)cn2CC(=O)O (stereo not shown) [Example 55, [3-(1,1-Dioxo-2-phenethyl-2,3-dihydro-1H-1λ^6-benzo[d]isothiazol-3-yl)-5-methoxy-indol-1-yl]-acetic acid]",< 10000 nM
4,"COc1ccc2c(c1)c(C1c3ccccc3S(=O)(=O)N1C(C)Cc1ccccc1)cn2CC(=O)O (stereo not shown) [Example 56, {5-Methoxy-3-[2-(1-methyl-2-phenyl-ethyl)-1,1-dioxo-2,3-dihydro-1H-1λ^6-benzo[d]isothiazol-3-yl]-indol-1-yl}-acetic acid]",< 10000 nM
5,"COc1ccc2c(c1)c(C1c3ccccc3S(=O)(=O)N1Cc1ccc(C#N)cc1)cn2CC(=O)O (stereo not shown) [Example 57, {3-[2-(4-Cyano-benzyl)-1,1-dioxo-2,3-dihydro-1H-1λ^6-benzo[d]isothiazol-3-yl]-5-methoxy-indol-1-yl}-acetic acid]",< 10000 nM
6,"C=CCN1C(c2c(C)n(CC(=O)O)c3ccc(Cl)cc23)c2ccccc2S1(=O)=O (stereo not shown) [Example 58, [3-(2-Allyl-1,1-dioxo-2,3-dihydro-1H-1λ^6-benzo[d]isothiazol-3-yl)-5-chloro-2-methyl-indol-1-yl]-acetic acid]",< 1000 nM
7,"CCOC(=O)CN1C(c2c(C)n(CC(=O)O)c3ccc(Cl)cc23)c2ccccc2S1(=O)=O (stereo not shown) [Example 59, [5-Chloro-3-(2-ethoxycarbonylmethyl-1,1-dioxo-2,3-dihydro-1H-1 λ^6-benzo[d]isothiazol-3-yl)-2-methyl-indol-1-yl]-acetic acid]",< 100 nM
8,"Cc1c(C2c3ccccc3S(=O)(=O)N2Cc2ccc(F)cc2)c2cc(Cl)ccc2n1CC(=O)O (stereo not shown) [Example 60, {5-Chloro-3-[2-(4-fluoro-benzyl)-1,1-dioxo-2,3-dihydro-1H-1λ^6-benzo[d]isothiazol-3-yl]-2-methyl-indol-1-yl}-acetic acid]",< 1000 nM
9,"Cc1c(C2c3ccc(F)cc3S(=O)(=O)N2Cc2cccc(F)c2)c2ccccc2n1CC(=O)O (stereo not shown) [Example 63, {3-[6-Fluoro-2-(3-fluoro-benzyl)-1,1-dioxo-2,3-dihydro-1H-1λ^6benzo[d]isothiazol-3-yl]-2-methyl-indol-1-yl}-acetic acid]",< 1000 nM
10,"Cc1c(C2c3ccc(F)cc3S(=O)(=O)N2CCc2ccccc2)c2ccccc2n1CC(=O)O (stereo not shown) [Example 64, [3-(6-Fluoro-1,1-dioxo-2-phenethyl-2,3-dihydro-1H-1λ^6-benzo[d]isothiazol-3-yl)-2-methyl-indol-1-yl]-acetic acid]",< 100 nM
11,"Cc1noc(C)c1CN1C(C)(c2c(C)n(CC(=O)O)c3ccccc23)c2ccccc2S1(=O)=O (stereo not shown) [Example 65, {3-[2-(3,5-Dimethyl-isoxazol-4-ylmethyl)-3-methyl-1,1-dioxo-2,3-dihydro-1H-1λ^6-benzo[d]isothiazol-3-yl]-2-methyl-indol-1-yl}-acetic acid]",< 100 nM
12,"Cc1c(C2(C)c3ccccc3S(=O)(=O)N2Cc2cccc(F)c2)c2ccccc2n1CC(=O)O (stereo not shown) [Example 66, {3-[2-(3-Fluoro-benzyl)-3-methyl-1,1-dioxo-2,3-dihydro-1H-1λ^6-benzo[d]isothiazol-3-yl]-2-methyl-indol-1-yl}-acetic acid]",< 1000 nM
13,"Cc1c(C2(C)c3ccccc3S(=O)(=O)N2CCOc2ccccc2)c2ccccc2n1CC(=O)O (stereo not shown) [Example 67, {2-Methyl-3-[3-methyl-1,1-dioxo-2-(2-phenoxy-ethyl)-2,3-dihydro-1H-1-benzo[d]isothiazol-3-yl]-indol-1-yl}-acetic acid]",< 1000 nM
14,"Cc1noc(C)c1CN1C(=O)c2ccccc2C1c1c(C)n(CC(=O)O)c2ccccc12 (stereo not shown) [Example 68, {3-[2-(3,5-Dimethyl-isoxazol-4-ylmethyl)-3-oxo-2,3-dihydro-1H-isoindol-1-yl]-2-methyl-indol-1-yl}-acetic acid]",< 1000 nM
15,"Cc1noc(C)c1CN1C(c2c(C)n(CC(=O)O)c3ccccc23)CCS1(=O)=O (stereo not shown) [Example 69, {3-[2-(3,5-Dimethyl-isoxazol-4-ylmethyl)-1,1-dioxo-λ^6-isothiazolidin-3-yl]-2-methyl-indol-1-yl}-acetic acid]",< 100 nM
16,"Cc1c(C2=NN(Cc3ccccc3)C(=O)C3CC=CCC23)c2ccccc2n1CC(=O)O (stereo not shown) [Example 71, [3-(3-Benzyl-4-oxo-3,4,4a,5,8,8a-hexahydro-phthalazin-1-yl)-2-methyl-indol-1-yl]-acetic acid]",< 1000 nM
17,"Cc1c(C2=NN(Cc3ccccc3)C(=O)C(C)(C)C2)c2cc(Cl)ccc2n1CC(=O)O [Example 73, [3-(1-Benzyl-5,5-dimethyl-6-oxo-1,4,5,6-tetrahydro-pyridazin-3-yl)-5-chloro-2-methyl-indol-1-yl]-acetic acid]",< 100 nM
18,"Cc1c(C2c3ccccc3S(=O)(=O)N2c2ccccc2)c2ccccc2n1CC(=O)O (stereo not shown) [Example 74, [3-(1,1-Dioxo-2-phenyl-2,3-dihydro-1H-1λ^6-benzo[d]isothiazol-3-yl)-2-methyl-indol-1-yl]-acetic acid]",< 1000 nM
19,"Cc1c(C2=NN(Cc3ccccc3)S(=O)(=O)c3ccccc32)c2cc(F)ccc2n1CC(=O)O [Example 75, [3-(2-Benzyl-1,1-dioxo-1,2-dihydro-1λ^6-benzo[e][1,2,3]thiadiazin-4-yl)-5-fluoro-2-methyl-indol-1-yl]-acetic acid]",< 1000 nM
20,"Cc1c(C2=NN(Cc3ccccc3Cl)S(=O)(=O)c3ccccc32)c2cc(F)ccc2n1CC(=O)O [Example 76, {3-[2-(2-Chloro-benzyl)-1,1-dioxo-1,2-dihydro-1λ^6-benzo[e][1,2,3]thiadiazin-4-yl]-5-fluoro-2-methyl-indol-1-yl}-acetic acid]",< 100 nM
21,"Cc1c(C2=NN(Cc3cccc(Cl)c3)S(=O)(=O)c3ccccc32)c2cc(F)ccc2n1CC(=O)O [Example 77, {3-[2-(3-Chloro-benzyl)-1,1-dioxo-1,2-dihydro-1λ^6-benzo[e][1,2,3]thiadiazrn-4-yl]-5-fluoro-2-methyl-indol-1-yl}-acetic acid]",< 1000 nM
22,"Cc1c(C2=NN(Cc3ccc(Cl)cc3)S(=O)(=O)c3ccccc32)c2cc(F)ccc2n1CC(=O)O [Example 78, {3-[2-(4-Chloro-benzyl)-1,1-dioxo-1,2-dihydro-1λ^6-benzo[e][1,2,3]thiadiazin-4-yl]-5-fluoro-2-methyl-indol-1-yl}-acetic acid]",< 1000 nM
23,"COc1cccc(CN2N=C(c3c(C)n(CC(=O)O)c4ccc(F)cc34)c3ccccc3S2(=O)=O)c1 [Example 79, {3-[2-(3-Methoxy-benzyl)-1,1-dioxo-1,2-dihydro-1λ^6-benzo[e][1,2,3]thiadiazin-4-yl]-5-fluoro-2-methyl-indol-1-yl}-acetic acid]",< 1000 nM
24,"COc1ccc(CN2N=C(c3c(C)n(CC(=O)O)c4ccc(F)cc34)c3ccccc3S2(=O)=O)cc1 [Example 80, {3-[2-(4-Methoxy-benzyl)-1,1-dioxo-1,2-dihydro-1λ^6-benzo[e][1,2,3]thiadiazin-4-yl]-5-fluoro-2-methyl-indol-1-yl}-acetic acid]",< 100 nM
25,"Cc1c(C2=NN(Cc3ccccc3F)S(=O)(=O)c3ccccc32)c2cc(F)ccc2n1CC(=O)O [Example 81, {3-[2-(2-Fluoro-benzyl)-1,1-dioxo-1,2-dihydro-1λ^6-benzo[e][1,2,3]thiadiazin-4-yl]-5-fluoro-2-methyl-indol-1-yl}-acetic acid]",< 100 nM
